Test results as given in patent EP2128158A1, “Heterocyclic cyclopropyl-substituted FXR binding compounds” (Phenex Pharmaceuticals AG, priority 2008, dated 2009).
Read-outs that look alike come from different tables or passages of the source.

What was measured:
[1] = molecular target: T1, full length human FXR (Homo sapiens, UniProt Q96RI1); assay: Direct reporter (DR) gene assay in stably transfected HEK293 cells (D2IV3), luciferase; type: cell-based
T1 construct: The full length human FXR (NM_005123) was cloned into pTRexDest30; expressed in transfected cells
T1 sequence (Q96RI1 1-472 isoform Q96RI1-2): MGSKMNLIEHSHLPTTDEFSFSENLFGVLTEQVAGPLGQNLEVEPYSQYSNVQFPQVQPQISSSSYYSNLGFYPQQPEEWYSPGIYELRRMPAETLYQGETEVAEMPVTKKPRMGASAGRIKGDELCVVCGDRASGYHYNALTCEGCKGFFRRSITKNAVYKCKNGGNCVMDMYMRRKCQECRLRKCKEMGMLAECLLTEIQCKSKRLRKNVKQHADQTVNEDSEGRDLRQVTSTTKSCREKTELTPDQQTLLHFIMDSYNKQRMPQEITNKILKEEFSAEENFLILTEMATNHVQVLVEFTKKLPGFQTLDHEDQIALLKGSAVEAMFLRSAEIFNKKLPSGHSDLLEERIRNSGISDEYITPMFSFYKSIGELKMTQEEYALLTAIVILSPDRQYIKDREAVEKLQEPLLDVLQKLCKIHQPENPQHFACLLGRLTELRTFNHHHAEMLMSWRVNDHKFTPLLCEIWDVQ
Source text: In the direct reporter gene assay, HEK293 cells, obtained from DSMZ (German Collection of Microorganisms and Cell Cultures, Braunschweig, Germany) were stably transfected with pTRexDest30 (Invitrogen) derivative pTRexDest30-hFXR and pGL2promoter (Promega) derivative pGL2promoter-2xIBABP-RE. The full length human FXR (NM_005123) was cloned into pTRexDest30 according to the manufacturer protocol for the Gateway system (Invitrogen). The FXR response elements cccaGGGTGAaTAACCTcggggctctgtccctccaatcccaGGGTGAaTAACCTcggg were derived from the human IBABP-P promoter (Grober et al. 1999, JBC, 174, pp.29749-29754) and cloned into pGL2promoter. […] For the direct reporter gene assays, D2IV3 cells were grown in MEM with L-Glutamine and Earle's BSS supplemented with 10% fetal bovine serum, 0.1mM nonessential amino acids, 1mM sodium pyruvate, and 100units Penicilin/[…] per ml at 37°C in 5% CO2. Medium and supplements were obtained from Invitrogen. For the assay, 5x10^5 cells were plated per well in 96well plates in 100µl per well minimum essential medium (same composition as above) incubated at 37°C in 5% CO2. The following day the cells were >90% confluence. Compounds were prediluted in MEM and added at different concentrations to the cells with the final DMSO vehicle concentration not exceeding 0.1%. Cells were incubated for additional 16 hours before firefly luciferase activity was measured. All experiments were done in triplicates.

[2] = molecular target: T2, FXR ligand binding domain (Homo sapiens, UniProt Q96RI1); assay: Mammalian one hybrid (M1H) assay, Gal4 promoter driven transactivation in HEK293 cells; type: cell-based; conditions: Gal4-FXR LBD, 16 hours incubation, dual luciferase, read-out: M1H assay EC50 (±sd)
T2 construct: expressed in transfected cells; host or cells: HEK293 (DSMZ), transient transfection, vector pCMV-BD
T2 sequence (Q96RI1 187-472 isoform Q96RI1-2): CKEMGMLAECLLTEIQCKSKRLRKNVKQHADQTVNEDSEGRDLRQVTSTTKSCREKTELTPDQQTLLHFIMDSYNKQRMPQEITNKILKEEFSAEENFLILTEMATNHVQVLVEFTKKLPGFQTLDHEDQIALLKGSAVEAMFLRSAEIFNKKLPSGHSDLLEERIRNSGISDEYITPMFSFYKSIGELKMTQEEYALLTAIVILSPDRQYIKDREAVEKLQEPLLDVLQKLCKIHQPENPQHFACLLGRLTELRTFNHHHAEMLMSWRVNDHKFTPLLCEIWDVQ
Experimental: Determination of a ligand mediated Gal4 promoter driven transactivation to quantify ligand binding mediated activation of FXR was performed as follows: The cDNA part encoding the FXR ligand binding domain was cloned into vector pCMV-BD (Stratagene) as a fusion to the yeast GAL4 DNA binding domain under the control of the CMV promoter. The amino acid boundaries of the ligand binding domain were amino acids 187-472 of Database entry NM_005123 (RefSeq). The plasmid pFR-Luc (Stratagene) was used as the reporter plasmid, containing a synthetic promoter with five tandem repeats of the yeast GAL4 binding sites, driving the expression of the Photinus pyralis (American firefly) luciferase gene as the reporter gene. In order to improve experimental accuracy the plasmid pRL-CMV (Promega) was cotransfected. pRL-CMV contains the constitutive CMV promoter, controlling the expression of the Renilla reniformis luciferase. All Gal4 reporter gene assays were done in HEK293 cells (obtained from DSMZ, Braunschweig, Germany) grown in MEM with L-Glutamine and Earle's BSS supplemented with 10% fetal bovine serum, 0.1 mM nonessential amino acids, 1mM sodium pyruvate, and 100units Penicilin/[…] per ml at 37°C in 5% CO2. Medium and supplements were obtained from Invitrogen. For the assay, 5x10^5 cells were plated per well in 96well plates in 100µl per well MEM without Phenol Red and L-Glutamine and with Earle's BSS supplemented with 10% charcoal/dextran treated FBS (HyClone, South Logan, Utah), 0.1 mM nonessential amino acids, 2 mM glutamine, 1 mM sodium pyruvate, and 100 units Penicilin/[…] per ml, incubated at 37 °C in 5% CO2. The following day the cells were >90% confluence. Medium was removed and cells were transiently transfected using 20µl per well of a OptiMEM - polyethylene-imine-based transfection-reagent (OptiMEM, Invitrogen; Polyethyleneimine, Aldrich Cat No. 40,827-7) including the three plasmids described above. MEM with the same composition as used for plating cells was added 2-4 hours after addition of transfection mixture. Then compound stocks, prediluted in MEM were added (final vehicle concentration not exceeding 0.1 %). Cells were incubated for additional 16 hours before firefly and renilla luciferase activities were measured sequentially in the same cell extract using a Dual-Light-Luciferase-Assay system (Dyer et al., Anal Biochem 2000, (282), 158-161). All experiments were done in triplicates.

[3] = molecular target: T3, human FXR alpha ligand binding domain (Homo sapiens, UniProt Q96RI1); assay: FRET activity assay (ligand mediated FXR-LBD / SRC-1 cofactor peptide interaction, LANCE); type: biochemical
T3 construct: made in house; host or cells: E. coli BL21(DE3), vector pDEST15
T3 sequence (Q96RI1 187-472 isoform Q96RI1-2): T2 sequence (Q96RI1 187-472 isoform Q96RI1-2)
Experimental: Determination of a ligand mediated cofactor peptide interaction to quantify ligand binding to the nuclear receptor FXR was performed as follows: Preparation of human FXR alpha ligand binding domain: The human FXRalpha LBD was expressed in E. coli strain BL21(DE3) as an N-terminally GST tagged fusion protein. The DNA encoding the FXR ligand binding domain was cloned into vector pDEST15 (Invitrogen). Expression was under control of an IPTG inducible T7 promoter. The amino acid boundaries of the ligand binding domain were amino acids 187-472 of Database entry NM_005123 (RefSeq). Expression and purification of the FXR-LBD:
An overnight preculture of a transformed E.coli strain was diluted 1:20 in LB-Ampicillin medium and grown at 30°C to an optical density of OD600=0.4-0.6. Gene expression was then induced by addition of 0.5 mM IPTG. Cells were incubated an additional 6h at 30°C, 180 rpm. Cells were collected by centrifugation (7000 x g, 7 min, room temperature). Per liter of original cell culture, cells were resuspended in 10 ml lysis buffer (50 mM Glucose, 50 mM Tris pH 7.9, 1 mM EDTA and 4 mg/ml lysozyme) and left on ice for 30 min. Cells were then subjected to sonication and cell debris removed via centrifugation (22000 x g, 30 min, 4°C). Per 10 ml of supernatant 0.5 ml prewashed Glutathione 4B sepharose slurry (Qiagen) was added and the suspension kept slowly rotating for 1 h at 4°C. Glutathione 4B sepharose beads were pelleted by centrifugation (2000 g, 15 sec, 4°C) and washed twice in wash buffer (25 mM Tris, 50mM KCl, 4 mM MgCl2 and 1M NaCl). The pellet was resuspended in 3 ml elution buffer per liter of original culture (elution buffer: 20 mM Tris, 60 mM KCI, 5 mM MgCl2 and 80 mM glutathione added immediately prior to use as powder). The suspension was left rotating for 15 min at 4°C, the beads pelleted and eluted again with half the volume of elution buffer than the first time. The eluates were pooled and dialysed overnight in 20 mM Hepes buffer (pH 7.5) containing 60 mM KCI, 5 mM MgCl2 as well as 1 mM dithiothreitol and 10% (v/v) glycerol. The protein was analysed by SDS-Page.
The method measures the ability of putative ligands to modulate the interaction between the purified bacterial expressed FXR ligand binding domain (LBD) and a synthetic biotinylated peptide based on residues 676-700 of SRC-1 (LCD2, 676-700). The sequence of the peptide used was B-[…]-COOH where the N-terminus was biotinylated (B). The ligand binding domain (LBD) of FXR was expressed as fusion protein with GST in BL-21 cells using the vector pDEST15. Cells were lysed by sonication, and the fusion proteins purified over glutathione sepharose (Pharmacia) according to the manufacturers instructions. […] For ease of handling and reduction of background from compound fluorescence LANCE technology makes use of generic fluorophore labels and time resolved detection Assays were done in a final volume of 2 5µl in a 384 well plate, in a Tris-based buffer (20 mM Tris-HCl pH 7,5; 60 mM KCI, 5 mM MgCl2; 35 ng/µl BSA), containing 20-60 ng/well recombinantly expressed FXR-LBD fused to GST, 200-600 nM N-terminally biotinylated peptide, representing SRC1 aminoacids 676-700, 200 ng/well Streptavidin-xIAPC conjugate(Prozyme) and 6-10 ng/well Eu W1024 - antiGST (Perkin Elmer). […] The LANCE signal was detected by a Perkin Elmer VICTOR2VTM Multilabel Counter The results were visualized by plotting the ratio between the emitted light at 665 nm and 615 nm. […]

[4] = 16 hours incubation, firefly luciferase, read-out: DR assay EC50 (±sd)
[5] = GST-tagged FXR-LBD, biotinylated SRC-1 peptide 676-700; read-out: FRET assay EC50 (±sd)

Structure (SMILES): CC(C)c1onc(-c2c(Cl)cccc2Cl)c1COc1ccc(N(C)Cc2ccc(C(=O)O)cc2)c(C(F)(F)F)n1 [Compound B, 4-(((6-((3-(2,6-Dichlorophenyl)-5-isopropylisoxazol-4-yl)methoxy)-2-(trifluoromethyl)pyridin-3-yl)(methyl)amino)methyl)benzoic acid, reference compound]
- EC50 [1, 4]: 13 nM
- EC50 [2]: 95 nM
- EC50 [3, 5]: 17 nM

Structure (SMILES): CC(C)c1onc(-c2c(Cl)cccc2Cl)c1COc1ccc(N(C)Cc2cccc(C(=O)O)c2)c(C(F)(F)F)n1 [Compound C, 3-(((6-((3-(2,6-Dichlorophenyl)-5-isopropylisoxazol-4-yl)methoxy)-2-(trifluoromethyl)pyridin-3-yl)(methyl)amino)methyl)benzoic acid, reference compound]
- EC50 [1, 4]: 5.7 nM
- EC50 [2]: 186 nM
- EC50 [3, 5]: 11 nM

Structure (SMILES): CN(Cc1ccc(C(=O)O)cc1)c1ccc(OCc2c(-c3c(Cl)cccc3Cl)noc2C2CC2)nc1C(F)(F)F [Example 1, 4-{[(6-((5-Cyclopropyl-3-(2,6-dichlorophenyl)isoxazol-4-yl)methoxy)-2-(trifluoromethyl)pyridin-3-yl)(methyl)amino]methyl}benzoic acid]
- EC50 ([1]; read-out: DR assay EC50 (±sd), 16 hours incubation, firefly luciferase): 6.4 nM
- EC50 [2]: 56 nM
- EC50 ([3]; read-out: FRET assay EC50 (±sd); GST-tagged FXR-LBD, biotinylated SRC-1 peptide 676-700): 8.4 nM

Structure (SMILES): Cc1cc(CN(C)c2ccc(OCc3c(-c4c(Cl)cccc4Cl)noc3C3CC3)nc2C(F)(F)F)ccc1C(=O)O [Example 2, 4-{[(6-((5-Cyclopropyl-3-(2,6-dichlorophenyl)isoxazol-4-yl)methoxy)-2-(trifluoromethyl)pyridin-3-yl)(methyl)amino]methyl}-2-methylbenzoic acid]
- EC50 [1, 4]: 6 nM
- EC50 [2]: 40 nM
- EC50 [3, 5]: 7.7 nM

Structure (SMILES): Cc1cc(CN(C)c2ccc(OCc3c(-c4c(Cl)cccc4Cl)noc3C3CC3)nc2C(F)(F)F)cc(C)c1C(=O)O [Example 3, 4-{[(6-((5-Cyclopropyl-3-(2,6-dichlorophenyl)isoxazol-4-yl)methoxy)-2-(trifluoromethyl)pyridin-3-yl)(methyl)amino]methyl}-2,6-dimethylbenzoic acid]
- EC50 [1, 4]: 6 nM
- EC50 [2]: 55 nM
- EC50 [3, 5]: 11.5 nM
